Where a name gives a salt, the structure may show the parent alone.
biological target: T1, human P2Y12 receptor (Homo sapiens, UniProt Q9H244); test: P2Y12 receptor binding assay; conditions: CHO cells with recombinant expression of the human P2Y12 receptor; tritium-labeled 2-methyl-S-ADP; incubation at room temperature for 2 hours
T1 construct: expressed in transfected cells; host or cells: Chinese Hamster Ovary (CHO) cells
Protocol: P2Y12 Receptor Binding Assay
Chinese Hamster Ovary (CHO) cells with recombinant expression of the human P2Y12 receptor were cultured in 24 well cell-culture plates. Cells were washed three times with binding buffer (50 mM Tris pH 7.4, 100 mM NaCl, 1 mM EDTA, 0.5% BSA). The cells were then incubated with 0.5 ml per well binding buffer containing tritium-labeled 2-methyl-thio-adenosine 5′-diphosphate (2-methyl-S-ADP) (between 100'000 and 300'000 dpm per well) and various concentrations of test compounds. After incubation at room temperature for 2 hours, cells were washed three times with binding buffer. Then, cells were solubilized by addition of 0.5 ml solubilization buffer (SDS, NaOH, EDTA). The content of each well was then transferred into beta-counter vials and 2.0 ml of Ultima Gold Scintillation liquid was added.

T1 sequence (Q9H244 whole entry): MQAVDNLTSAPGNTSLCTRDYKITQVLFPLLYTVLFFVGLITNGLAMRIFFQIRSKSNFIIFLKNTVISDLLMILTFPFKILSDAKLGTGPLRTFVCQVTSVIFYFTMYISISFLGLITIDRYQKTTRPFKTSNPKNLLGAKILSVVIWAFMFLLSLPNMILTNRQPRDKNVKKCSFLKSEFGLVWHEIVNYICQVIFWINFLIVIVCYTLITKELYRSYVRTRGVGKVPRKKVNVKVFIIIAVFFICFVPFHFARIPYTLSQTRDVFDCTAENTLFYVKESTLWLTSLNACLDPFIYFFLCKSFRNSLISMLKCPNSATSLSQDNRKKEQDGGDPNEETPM

Row | SMILES | IC50
1 | CCOC(=O)N1CCN(C(=O)[C@H](CCC(=O)O)NC(=O)c2cc(N3CCC[C@@H]3COC)nc(-c3ccccc3)n2)CC1 [Example 324, 4-((S)-4-carboxy-2-{[6-((R)-2-methoxymethyl-pyrrolidin-1-yl)-2-phenyl-pyrimidine-4-carbonyl]-amino}-butyryl)-piperazine-1-carboxylic acid ethyl ester formate salt] | 61 nM
2 | CCOC(=O)N1CCN(C(=O)[C@H](CCc2nnn[nH]2)NC(=O)c2cc(OC3CCCC3)nc(-c3ccccc3)n2)CC1 [Example 19, 4-[(S)-2-[(6-cyclopentyloxy-2-phenyl-pyrimidine-4-carbonyl)-amino]-4-(1H-tetrazol-5-yl)-butyryl]-piperazine-1-carboxylic acid ethyl ester] | 127 nM
3 | CCOC(=O)N1CCN(C(=O)[C@H](CCC(=O)O)NC(=O)c2cc(/C=C/C(C)O)nc(-c3ccccc3)n2)CC1 (stereo partly drawn) [Example 267, 4-((S)-4-carboxy-2-{[6-((E)-3-hydroxy-but-1-enyl)-2-phenyl-pyrimidine-4-carbonyl]-amino}-butyryl)-piperazine-1-carboxylic acid ethyl ester] | 216 nM
4 | CCOC(=O)N1CCN(C(=O)[C@H](CCC(=O)O)NC(=O)c2cc(OC3CCCC3)nc(-c3ccccc3)n2)CC1C (stereo partly drawn) [Example 46, 4-{(S)-4-carboxy-2-[(6-cyclopentyloxy-2-phenyl-pyrimidine-4-carbonyl)-amino]-butyryl}-2-methyl-piperazine-1-carboxylic acid ethyl ester] | 510 nM
5 | CCOC(=O)N1CCN(C(=O)C(Cc2cccc(OCC(=O)O)c2)NC(=O)c2cc(OC3CCCC3)nc(-c3ccccc3)n2)CC1 (centres unmarked) [Example 31, 4-{3-(3-carboxymethoxy-phenyl)-2-[(6-cyclopentyloxy-2-phenyl-pyrimidine-4-carbonyl)-amino]-propionyl}-piperazine-1-carboxylic acid ethyl ester] | 592 nM
6 | CCOC(=O)N1CCN(C(=O)[C@H](CCC(=O)O)NC(=O)c2cc(NC(C)COC)nc(-c3ccccc3)n2)CC1 (stereo partly drawn) [Example 223, 4-((S)-4-carboxy-2-{[6-(2-methoxy-1-methyl-ethylamino)-2-phenyl-pyrimidine-4-carbonyl]-amino}-butyryl)-piperazine-1-carboxylic acid ethyl ester formate salt] | 97 nM
7 | CCOC(=O)N1CCN(C(=O)[C@H](CCC(=O)O)NC(=O)c2cc(OC3CCCC3)nc(-c3ccccc3)n2)CC1 [Example 1, 4-{(S)-4-carboxy-2-[(6-cyclopentyloxy-2-phenyl-pyrimidine-4-carbonyl)-amino]-butyryl}-piperazine-1-carboxylic acid ethyl ester] | 117 nM
8 | CCOC(=O)N1CCN(C(=O)[C@H](CCC(=O)O)NC(=O)c2cc(CCC(C)(C)O)nc(-c3ccccc3)n2)CC1 [Example 266, 4-((S)-4-carboxy-2-{[6-(3-hydroxy-3-methyl-butyl)-2-phenyl-pyrimidine-4-carbonyl]-amino}-butyryl)-piperazine-1-carboxylic acid ethyl ester] | 273 nM
9 | CCOC(=O)CCNc1cc(C(=O)N[C@@H](CCC(=O)O)C(=O)N2CCN(C(=O)OCC)CC2)nc(-c2ccccc2)n1 [Example 59, 4-((S)-4-carboxy-2-{[6-(2-ethoxycarbonyl-ethylamino)-2-phenyl-pyrimidine-4-carbonyl]-amino}-butyryl)-piperazine-1-carboxylic acid ethyl ester triflate salt] | 276 nM
10 | CCOC(=O)N1CCN(C(=O)[C@H](CCC(=O)O)NC(=O)c2cc(C#CC(O)CC)nc(-c3ccccc3)n2)CC1 (stereo partly drawn) [Example 261, 4-((S)-4-carboxy-2-{[6-(3-hydroxy-pent-1-ynyl)-2-phenyl-pyrimidine-4-carbonyl]-amino}-butyryl)-piperazine-1-carboxylic acid ethyl ester] | 126 nM

The remaining lines, values ahead:

Row | IC50 | SMILES
11 | 129 nM | CCOC(=O)N1CCN(C(=O)[C@H](CCC(=O)O)NC(=O)c2cc(-c3ccc[n+]([O-])c3)nc(-c3ccccc3)n2)CC1 [Example 418, 4-((S)-4-carboxy-2-{[6-(1-oxy-pyridin-3-yl)-2-phenyl-pyrimidine-4-carbonyl]-amino}-butyryl)-piperazine-1-carboxylic acid ethyl ester]
12 | 188 nM | CCOCc1cc(C(=O)N[C@@H](CCC(=O)O)C(=O)N2CCN(C(=O)OCC)CC2)nc(-c2ccccc2)n1 [Example 430, 4-{(S)-4-carboxy-2-[(6-ethoxymethyl-2-phenyl-pyrimidine-4-carbonyl)-amino]-butyryl}-piperazine-1-carboxylic acid ethyl ester]
13 | 157 nM | CCOC(=O)N1CCN(C(=O)[C@H](CCC(=O)O)NC(=O)c2cc(CSC3CCCC3)nc(-c3ccccc3)n2)CC1 [Example 378, 4-{(S)-4-carboxy-2-[(6-cyclopentylsulfanylmethyl-2-phenyl-pyrimidine-4-carbonyl)-amino]-butyryl}-piperazine-1-carboxylic acid ethyl ester]
14 | 108 nM | CCOC(=O)N1CCN(C(=O)[C@H](CCC(=O)O)NC(=O)c2cc(CS(=O)(=O)CC)nc(-c3ccccc3)n2)CC1 [Example 375, 4-{(S)-4-carboxy-2-[(6-ethanesulfonylmethyl-2-phenyl-pyrimidine-4-carbonyl)-amino]-butyryl}-piperazine-1-carboxylic acid ethyl ester]
15 | 75 nM | CCOC(=O)N1CCN(C(=O)[C@H](CCC(=O)O)NC(=O)c2cc(/C=C/CCO)nc(-c3ccccc3)n2)CC1 [Example 421, 4-((S)-4-carboxy-2-{[6-((E)-4-hydroxy-but-1-enyl)-2-phenyl-pyrimidine-4-carbonyl]-amino}-butyryl)-piperazine-1-carboxylic acid ethyl ester]
16 | 73 nM | CCOC(=O)N1CCN(C(=O)[C@H](CCC(=O)O)NC(=O)c2cc(-c3cn[nH]c3)nc(-c3ccccc3)n2)CC1 [Example 396, 4-((S)-4-carboxy-2-{[2-phenyl-6-(1H-pyrazol-4-yl)-pyrimidine-4-carbonyl]-amino}-butyryl)-piperazine-1-carboxylic acid ethyl ester]
17 | 161 nM | CCOC(=O)N1CCN(C(=O)[C@H](CCC(=O)O)NC(=O)c2cc(N)nc(-c3ccccc3)n2)CC1 [Example 333, 4-{(S)-2-[(6-amino-2-phenyl-pyrimidine-4-carbonyl)-amino]-4-carboxy-butyryl}-piperazine-1-carboxylic acid ethyl ester triflate salt]
